Laboratory results: PMC5100903, “Tissue Kallikrein Inhibitors Based on the Sunflower Trypsin Inhibitor Scaffold – A Potential Therapeutic Intervention for Skin Diseases” (PLoS ONE, 2016)
Where two headings read alike, the source gives them in different places. Positions of bridges follow the written chain, without caps; N, C: chain ends. Residues, ends and D or L forms follow the SMILES beside them.

Legend:
[1] = amide bond, 42-membered ring, MESNa (NCL via N-S acyl transfer), then NH4HCO3 oxidation, 0.1 M Na phosphate pH 5.8, 55.0 °C, 2 steps
KLK5 [2] = target: T1, KLK5 (Homo sapiens, UniProt Q9Y337); assay: biochemical
T1 construct: purchased Novoprotein
T1 sequence (Q9Y337 23-293): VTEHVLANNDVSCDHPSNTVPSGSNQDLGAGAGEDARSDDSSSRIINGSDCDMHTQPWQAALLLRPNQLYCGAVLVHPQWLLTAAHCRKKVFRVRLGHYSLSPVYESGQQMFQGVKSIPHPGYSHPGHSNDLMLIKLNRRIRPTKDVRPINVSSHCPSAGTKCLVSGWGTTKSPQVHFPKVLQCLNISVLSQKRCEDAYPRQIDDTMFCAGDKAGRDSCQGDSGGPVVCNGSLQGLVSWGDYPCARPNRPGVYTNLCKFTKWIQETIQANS
Protocol: (§1) All assays were performed on 96-well microplates and the change in relative fluorescence unit (RFU) was measured by fluorescence spectrometer (BMG FLUOstar OPTIMA). The excitation/emission wavelength was 360/460 nm for the substrate Boc-VPR-AMC (Bachem AG, Hauptstrasse, Switzerland) and MeOSuc-AAPV-AMC (Bachem AG, Hauptstrasse, Switzerland) and 485/520 nm for BODIPY_FL casein (Invitrogen, Carlsbad, US). Stock solution of Boc-VPR-AMC was prepared by dissolving the solid in dimethyl sulfoxide to 100 mM and 10 mM for MeOSuc-AAPV. For BODIPY_FL casein, it was reconstituted to 1 mg/mL in 1xPBS. […] The % of inhibition was calculated by the following equation: % of Inhibition=(1−(Sample RFU − Min RFU)/(Max RFU − Min RFU)) X100
(§2) Each inhibition curves were done in triplicates with a minimum of five concentration points fitted. Fitting of each curve was done using SigmaPlot with the Four Parameter Logistic Function and the IC50 calculated. […] All tested compounds were reconstituted to stock solution in water.
The diluent for all the tested compounds, protein and substrate was 1xPBS. Serially diluted ligands were mixed with diluted recombinant KLK5 (10 nM f/c). The ligand-protein mixtures were incubated on ice for one hour and 19.5 μL was pipetted into a well of a 96-well microplate in triplicates. To start the reaction, 100 μL of the diluted (41.6 μM f/c) Boc-VPR-AMC substrate solution (contained 0.05% v/v Brij35) was added. The plate was incubated at 37°C and the RFU reading was taken 15 minutes after.
There are two previously reported Km values for KLK5 and its substrate Boc-VPR-AMC which allowed the IC50 to Ki conversion. Ki values were calculated according to the Cheng-Prusoff equation Ki= IC50/1+[S]/Km for single site competitive binding.

KLK7 = target: T2, KLK7 (Homo sapiens, UniProt P49862); assay: biochemical
T2 construct: purchased R&D
T2 sequence (P49862 30-253): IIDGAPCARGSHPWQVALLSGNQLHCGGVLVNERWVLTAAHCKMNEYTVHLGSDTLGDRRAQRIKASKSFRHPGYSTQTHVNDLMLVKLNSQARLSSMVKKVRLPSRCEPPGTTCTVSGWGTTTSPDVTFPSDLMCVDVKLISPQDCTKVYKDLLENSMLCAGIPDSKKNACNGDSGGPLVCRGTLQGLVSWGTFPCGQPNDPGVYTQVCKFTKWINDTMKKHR
Protocol: as §1, §2
Recombinant KLK7, KLK8 and KLK14 (>95% purity by SDS-PAGE, endotoxin <0.1 ng/μg, R&D, Minneapolis, U.S.) stocks were diluted with 1xPBS to a concentration of 120 nM. KLK7 and KLK14 were activated by addition of 1 mM f/c CaCl2 (Sigma, Dorset, U.K.), 0.05% v/v Brij35 (Sigma, Dorset, U.K.), 20 nM f/c thermolysin (Sigma, Dorset, U.K.) and incubated at 37°C for 1 hour. The reaction was stopped by addition of ethylenediaminetetraacetic acid (EDTA, 50 mM f/c). KLK8 was activated by addition of 11 nM f/c lysyl endopeptidase (Santa Cruz Biotechnology, Dallas, U.S.) and incubation at 37°C for 0.5 hour. […] The RFU value reached by the thermolysin control was used as the minimum RFU for calculating the % of inhibition for KLK7.
The diluent for all the tested compounds, protein and substrate (except KLK7, which was done with 10 mM Tris pH 7.8) was 1xPBS pH 8.0–8.9. The serially diluted ligands were mixed with diluted bovine trypsin (Sigma, Dorset, U.K.) or activated KLK14, or KLK5, or activated KLK8 or matriptase (catalytic domain only, >90% purity by SDS-PAGE, endotoxin <0.1 ng/μg, R&D, Minneapolis, U.S.) or activated KLK7 or human neutrophil elastase (purified from human plasma, >95% purity by SDS-PAGE, Abcam, Cambridge, U.K.) or porcine pancreatic elastase 1 (Sigma, Dorset, U.K.) or human plasma kallikrein or human plasma plasmin (purified from human plasma, ≥95% purity by SDS-PAGE, BioVision, Milpitas, U.S.). 20μL of the ligand-protein mixture was pipetted to a well of a 96-well microplate in triplicates. The reaction was started by addition of 90–100 μL of the diluted substrate solution (contained 0.05% v/v Brij35) and the plate incubated at 25°C but 37°C for KLK7. RFU reading for each well was taken 6 minutes (trypsin) or 15 minutes (KLK14, KLK5, KLK8, matriptase, human neutrophil elastase, porcine pancreatic elastase 1, plasma kallikrein and plasmin) or 20 hours (KLK7) after substrate addition.

KLK5 [3] = target: T1, KLK5; assay: biochemical; type: binding
Protocol: ITC experiments were performed on a MicroCal iTC200 calorimeter (GE Healthcare, Uppsala, Sweden) at 298.15 K with a stirring speed of 750 revolutions per minute. Concentrated (450 μM) ligand solutions were injected into protein (KLK5) solution (20 μM, 280 μL sample volume) in the sample cell. Injection volumes were 2 μL for I10H and Analogue 1 and 1 μL for Analogue 2 and 6 with a spacing of 120 seconds between each injection. Concentrations of ligands were determined by dried weight and they were reconstituted to 10 mM stock in H2O. Concentration of KLK5 was determined by UV280 calculated with an extinction coefficient of 38680 and molecular weight of 32KDa (including weight of glycosylation). The protein solution were buffer exchanged using spin column to 1xPBS (137 mM NaCl, 2.7 mM KCl, 4.3 mM Na2HPO4, 1.47 mM KH2PO4 pH 8.0) or 20 mM MES buffer (with 150 mM NaCl, pH 5.5). Ligand stocks were diluted in those buffers (4.5 μL + 95.5 μL buffer), and then equal v/v % of H2O was added to the protein solution after buffer exchange to ensure matching buffer contents. Heat of dilution was undetectable in control experiments. Data were analyzed using OriginLab version 7.0.

KLK5 [4] = target: T1, KLK5; assay: KLK5 inhibition, fluorogenic Boc-VPR-AMC assay (S1 Table conditions); type: biochemical; conditions: read-out: BOC-VPR-AMC IC50 (N = 3); KLK5 10 nM, Boc-VPR-AMC 41.6 μM, 1xPBS pH 8.0, 15 min on ice preincubation, read at 15 min, 25°C
Protocol: as §1, with “The excitation/emission wavelength was 360/460 nm for the substrate Boc-VPR-AMC (Bachem AG, Hauptstrasse, Switzerland) and MeOSuc-AAPV-AMC (Bachem AG, Hauptstrasse, Switzerland) and 485/520 nm for BODIPY_FL casein (Invitrogen, Carlsbad, US).” left out
as §2
The diluent for all the tested compounds, protein and substrate was 1xPBS pH 8.0. Zinc sulfate and p-aminobenzamidine were purchased from Sigma (Dorset, U.K.). […] The ligand-protein mixtures were incubated on ice for 15 minutes and 20 μL was transferred to a well of a 96-well microplate (ThermoScientific, Waltham, U.S.) in triplicate. […] Change in RFU was measured 15 minutes after substrate addition at 25°C.

GRCTKSIPPHCYPD gave a ring closure, yield after HPLC ([1]; 0.6 mM) of 19%.
Compound NRCTKSIPPHCFPD has a ring closure, yield after HPLC ([1]; 0.58 mM) of 25%.
With GRCTKSIPPHCFPD the ring closure, yield after HPLC ([1]; 0.6 mM) was 19%.
Work on CC[C@H](C)[C@@H]1NC(=O)[C@H](CO)NC(=O)[C@H](CCCNC(=N)N)NC(=O)[C@H]([C@@H](C)O)NC(=O)[C@@H]2CSSC[C@H](NC(=O)[C@H](Cc3c[nH]cn3)NC(=O)[C@@H]3CCCN3C(=O)[C@@H]3CCCN3C1=O)C(=O)N[C@@H](Cc1ccccc1)C(=O)N1CCC[C@H]1C(=O)N[C@@H](CC(=O)O)C(=O)NCC(=O)N[C@@H](CCCNC(=N)N)C(=O)N2 [Analogue 1] (cyclo(CFPDGRCTRSIPPH); disulfide 1-7) yielded an IC50 (KLK5 [2]) of 0.065 ± 0.01 µM, a Ki (KLK5 [2]) of 0.06 µM and an IC50 (KLK7) of 2.29 ± 0.068 µM. For the same compound, the Kd (KLK5 [3]) was 0.115 µM, the “Stoichiometry (N)” value (KLK5 [3]; ITC, 1xPBS pH 8.0, 25°C) was 1.03±0.01 and the ΔH (KLK5 [3]; ITC, 1xPBS pH 8.0, 25°C) was 1.216 ± 0.021 kcal/mol. For the same compound, the ΔS (KLK5 [3]; ITC, 1xPBS pH 8.0, 25°C) was 35.8 cal mol^-1 kelvin^-1, the ΔG (KLK5 [3]; ITC, 25°C) was -9.457 kcal/mol and the Ka (KLK5 [3]; ITC, 25°C (Table S2, unit not given)) was 8.7E6±2.7E6.
In the case of GRCTRSIPPHCFPD, the ring closure, yield after HPLC ([1]; 0.59 mM) is reported as 24%.
For GRCTKSKPPHCFPD, the ring closure, yield after HPLC ([1]; 0.6 mM) was 16%.
Compound O=S(=O)([O-])[O-].[Zn+2] [Zinc Sulfate] has an IC50 (KLK5 [4]) of 2.94 µM.
For GRCTRSIPPHCWPD, the ring closure, yield after HPLC ([1]; 0.58 mM) was 24%.
For N=C(N)c1ccc(N)cc1 [p-Aminobenzamidine], the IC50 (KLK5 [4]) was 60.5 µM.
Compound GRCTKSIPPHCWPD has a ring closure, yield after HPLC ([1]; 0.59 mM) of 25%.
